Legend:
[1] = test system: neurons VC4 and VC5; assay: Degeneration of VC4 and VC5 neurons in single-copy apl-1/huAPP695 overexpression worms treated with drugs (Example 1); type: in vivo, C. elegans; conditions: for APP-induced degeneration of VC4 and VC5 (in words): Example 1, FIG. 19, Table 3; for % degen / Day 1 (degenerated of counted) / Day 3 (degenerated of counted) / Day 5 (degenerated of counted): Dimebon
Source text: Many transgenic strains can be easily obtained from a public consortium (CGC), including those with specific neurons fluorescently labeled in a variety of colors. If not publicly available, these strains can be easily constructed using a PCR fusion approach. Final PCR products contain the GFP gene driven by a specific promoter-of-interest and are then microinjected into the gonad of adult wildtype animals. C. elegans have the ability to form a stable, functional extra-chromosomal array with injected PCR products. Therefore, they express injected DNA. Fluorescent worms are then crossed to the single-copy overexpression worms to generate overexpression worms with different identifiable sets of neurons labeled.

[2] = test system: VC4 and VC5 neurons; assay: Quantification of percent neurodegeneration of VC4&5 neurons with drug treatment (Example 2); type: in vivo, C. elegans; conditions: for neurodegeneration induced by APP or apl-1 (in words): 50 μM from L4-larval stage onward, FIG. 25A; for degeneration with gain-of-function mutation in egl-1 (in words): SC_APP and SC_apl-1 strains with egl-1 gain-of-function mutation; for degeneration of VC4&5, SC_APPC59 strain (in words): SC_APPC59 strain (intracellular portion of APP); for degeneration of VC4&5, SC_APPC59 strain (in words) / degeneration of VC4&5, SC_APPN636 strain (in words): FIG. 31; for degeneration of VC4&5, SC_APPN636 strain (in words): SC_APPN636 strain (extracellular and transmembrane portion of APP); for degeneration in egl-1 (null) mutant background (in words): egl-1 (null) background, FIG. 25C
Method: All analyses were completed with the experimenter blind to genotype and drug treatment. Age-synchronized animals were immobilized on 2% agar pads containing 0.7 mM sodium azide. Neurons that had broken/missing axonal projections, dimly-lit somas with missing projections or absent GFP labeling in the appropriate neuronal location were classified as degenerating. Serotonin neurons included NSM, ADF, AIM, RIH, HSN class members. All animals were evaluated within 10 minutes of azide treatment. In cases where the worm strains were too defective in egg laying to reach day 3 or 5 adult stage, animals were treated at L4-larval stage onward with the sterilization drug 5-fluoro-2′-deoxyuridne (0.12 mM final) (Sigma). […] The percentage of VC4 and VC5 neurons that succumbed to APP-induced degeneration was compared for different groups (strain, age, drug condition) using planned non-parametric X^2 analyses.
Drugs were freshly prepared in buffer (M9) solution and pipetted onto small seeded plates. These plates were allowed to dry at least 2 hours at RT before use. The final drug concentrations of solid media are: Dimebon, 50 μM (Tocris); P7C3, 50 μM. Well-fed larval stage 4 animals were picked onto seeded plates with or without drug. Animals were then allowed to age at 20° C. for ˜20 (day 1 adult), ˜68 (day 3 adult) and ˜116 hours (day 5 adult) before analysis. Controls using buffer with no drug were performed on each strain for each assay, and each assay was repeated multiple (3-8) times. Data were then averaged and statistically compared with planned non-parametric X2 analyses (Zar, 1999).

[3] = test system: egg-laying and swimming behaviors; assay: Egg-retention assay and swimming kinematics (behaviors that depend on VC4&5 neurons); type: in vivo, C. elegans; conditions: for egg-laying and swimming behaviors, SC_APPC59 strain (in words): data not shown; for behavioral deficits (swimming and egg laying) with age (in words): drug-treated SC_APP:mCh or SC_apl-1:mCh individuals
Method: Plates of non-starved adult worms were bleached to yield a synchronized population of eggs. Eggs were allowed to develop for ˜55 hours (day 1 adult) and ˜103 (day 3 adult) hours at 20° C. Animals were then individually dissolved in 1N NaOH, and eggs retained within the dissolved adult animal were counted.
Worms were submerged in NGM liquid and recorded for 1 minute following a 2-minute acclimation period. Spine analysis software was then used to calculate and plot the midbody angle of the worm as described in Pierce-Shimomura J T, Chen B L, Mun J J, Ho R, Sarkis R, McIntire S L. 2008. Genetic analysis of crawling and swimming locomotory patterns in C. elegans. Proc Natl Acad Sci USA. 105: 20982-7, incorporated by reference. Head-bend frequency was determined based on the average time it took an animal to make 20 complete-cycle head bends.

[4] = test system: adult-born neurons in the hippocampus; conditions: earlier reports; cited from earlier work
[5] = SC_huAPP695 strain, adult day 1
[6] = SC_huAPP695 strain, adult day 3
[7] = SC_huAPP695 strain, adult day 5

## Cc1ccc2c(c1)c1c(n2CCc2ccc(C)nc2)CCN(C)C1 [Dimebon]
[1]
  APP-induced degeneration of VC4 and VC5 (in words): prevents APP-induced neurodegeneration
[1]; SC_apl-1 strain, adult day 1
  % degen: 8.97%
  Day 1 (degenerated of counted): 14 of 156
[1]; SC_apl-1 strain, adult day 3
  % degen: 15.88%
  Day 3 (degenerated of counted): 27 of 170
[1]; SC_apl-1 strain, adult day 5
  % degen: 17.64%
  Day 5 (degenerated of counted): 12 of 68
[1]; [5]
  % degen: 10.66%
  Day 1 (degenerated of counted): 13 of 122
[1]; [6]
  % degen: 15.45%
  Day 3 (degenerated of counted): 17 of 110
[1]; [7]
  % degen: 16.67%
  Day 5 (degenerated of counted): 13 of 78
[1]; Wild-type strain, adult day 1
  % degen: 4.63%
  Day 1 (degenerated of counted): 5 of 108
[1]; Wild-type strain, adult day 3
  % degen: 6.45%
  Day 3 (degenerated of counted): 8 of 124
[1]; Wild-type strain, adult day 5
  % degen: 12.93%
  Day 5 (degenerated of counted): 15 of 116
[2]
  neurodegeneration induced by APP or apl-1 (in words): prevented neurodegeneration
  degeneration with gain-of-function mutation in egl-1 (in words): failed to prevent degeneration
  degeneration of VC4&5, SC_APPC59 strain (in words): prevented degeneration
  degeneration of VC4&5, SC_APPN636 strain (in words): failed to provide protection
  degeneration in egl-1 (null) mutant background (in words): no further protection from degeneration
[3]
  egg-laying and swimming behaviors, SC_APPC59 strain (in words): protection of egg-laying and swimming behaviors
  behavioral deficits (swimming and egg laying) with age (in words): without behavioral deficits
[4]
  adult-born hippocampal neurons (in words): promote the survival (prevent death) of adult-born hippocampal neurons

## CN1CCN2c3ccccc3Cc3ccccc3C2C1 (stereo not shown) [Mianserin]
[1]
  APP-induced degeneration of VC4 and VC5 (in words): prevent APP-induced degeneration

## CN1CCN2c3ncccc3Cc3ccccc3C2C1 (stereo not shown) [Mirtazapine]
[1]
  APP-induced degeneration of VC4 and VC5 (in words): prevent APP-induced degeneration

## OC(CNc1ccccc1)Cn1c2ccc(Br)cc2c2cc(Br)ccc21 (stereo not shown) [P7C3]
[2]
  neurodegeneration induced by APP or apl-1 (in words): significantly prevented neurodegeneration
  degeneration with gain-of-function mutation in egl-1 (in words): failed to prevent degeneration
  degeneration of VC4&5, SC_APPC59 strain (in words): prevented degeneration
  degeneration of VC4&5, SC_APPN636 strain (in words): failed to provide protection
  degeneration in egl-1 (null) mutant background (in words): no further protection from degeneration
[2]; prevention of VC4&5 degeneration, FIG. 25B
  relative potency in dose response analysis: two-orders of magnitude more potent than Dimebon
[3]
  egg-laying and swimming behaviors, SC_APPC59 strain (in words): protection of egg-laying and swimming behaviors
  behavioral deficits (swimming and egg laying) with age (in words): without behavioral deficits
[4]
  adult-born hippocampal neurons (in words): increase the number of adult-born neurons in the hippocampus of mice

## O=c1[nH]c(=O)n([C@H]2C[C@H](O)[C@@H](CO)O2)cc1F [5-fluoro-2′-deoxyuridne]
[2]; 0.12 mM final, from L4-larval stage onward (sterilization drug)
  effect on progression of degeneration of VC neurons (in words): no effect on the progression of degeneration of VC neurons
[3]; 0.12 mM final, swimming kinematics
  swimming defect of single-copy APP or apl-1 strains after sterilization (in words): displayed the same defect

— US20130024954A1, “Human Age-Related Neurodegenerative Nematode Model and Methods” (priority 2011, published 2013)
